Assays:
TLR3 = target: T1, TLR3 (Mus musculus, UniProt Q99MB1); assay: TLR3 signaling in HEK-Blue mTLR3 cells (AuNP iPEMs); assay type: cell-based; conditions: 16 hours, absorbance 625 nm
T1 construct: host or cells: HEK-Blue mTLR3 (HEK293-derived reporter cells)
T1 sequence (Q99MB1 26-905): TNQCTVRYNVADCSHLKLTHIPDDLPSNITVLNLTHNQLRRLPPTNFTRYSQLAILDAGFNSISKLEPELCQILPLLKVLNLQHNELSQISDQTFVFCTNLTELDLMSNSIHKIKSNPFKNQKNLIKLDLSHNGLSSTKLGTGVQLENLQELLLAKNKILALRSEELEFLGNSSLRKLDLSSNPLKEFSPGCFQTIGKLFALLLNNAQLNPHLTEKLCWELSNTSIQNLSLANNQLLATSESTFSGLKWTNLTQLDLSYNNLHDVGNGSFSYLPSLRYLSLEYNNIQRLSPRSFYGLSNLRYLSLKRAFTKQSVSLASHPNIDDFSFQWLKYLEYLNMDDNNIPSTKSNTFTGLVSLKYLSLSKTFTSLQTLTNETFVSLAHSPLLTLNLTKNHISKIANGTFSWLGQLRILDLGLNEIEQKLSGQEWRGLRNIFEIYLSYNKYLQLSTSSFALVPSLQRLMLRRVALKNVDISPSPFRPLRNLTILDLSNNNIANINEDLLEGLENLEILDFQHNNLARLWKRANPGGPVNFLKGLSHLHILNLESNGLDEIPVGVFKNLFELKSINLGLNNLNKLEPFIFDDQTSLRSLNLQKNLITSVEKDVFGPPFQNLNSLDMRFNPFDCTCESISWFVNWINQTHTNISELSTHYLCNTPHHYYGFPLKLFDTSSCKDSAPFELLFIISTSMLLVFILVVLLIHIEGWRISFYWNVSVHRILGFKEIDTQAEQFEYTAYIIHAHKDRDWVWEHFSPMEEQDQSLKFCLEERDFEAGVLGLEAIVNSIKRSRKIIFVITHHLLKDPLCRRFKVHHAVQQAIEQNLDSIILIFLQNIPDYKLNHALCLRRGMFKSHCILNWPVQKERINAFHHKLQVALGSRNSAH
Procedure: TLR3 signaling: TLR3 activity was assessed using HEK-Blue mTLR3 cells (Invivogen). Cells were seeded at a concentration of 5.0×10^4 cells per well, followed by treatment with Pam3CSK4 (0.2 μg/mL), LPS (1.0 μg/mL), polyIC (10 μg/mL), C-ODN (5 μg/mL), SIIN peptide (5 μg/mL), AuNPs (1.9×10^−2 mg/well), AuNP-(C-ODN/SIIN*)2 (80 μg/mL), or AuNP-(polyIC/SIIN*)2 (80 μg/mL). After 16 hours the absorbance was read at 625 nm using a UV/Vis platereader (Molecular Devices).

primary DCs = assay type: cell-based, mouse
Procedure: Cell internalization studies: Association and uptake of coated AuNPs by DCs was characterized by flow cytometry (FACS CantoII, BD Bioscience) and confocal microscopy (Leica SP5X). For flow cytometry, CD11c^+ splenic DCs were seeded in 96 well plates at a concentration of 1.0×10^5 cells per well. Uncoated AuNPs or AuNPs-(polyIC-Cy5/SIIN*-FITC)2 were then added to each well in a volume of 25 μL. Two-fold serial dilutions were performed using a starting iPEM/AuNPs concentration of 1.9 mg/mL. Cells were then cultured for 16 h. After incubation, cells were washed twice by centrifugation and re-suspended in FACS buffer (PBS+1% BSA). The washed cells were finally resuspended in a DAPI solution (0.1% in PBS+1% BSA) to allow assessment of viability by flow cytometry (i.e., DAPI^− cells). Cells positive for FITC and Cy5 signals compared with negative controls were considered to have associated with iPEMs.

[1] = test system: splenic CD11c+ DCs from B6 mice; assay: Presentation of SIINFEKL via MHC-I by DCs; assay type: cell-based, mouse; conditions: anti-SIIN/MHC-I antibody
Procedure: DC activation and antigen presentation: […] After incubation with iPEM-coated AuNPs, DCs were washed twice with PBS+1% BSA, then blocked in anti-CD16/CD32 (Fcγ III/II receptor) (25× dilution, BD Biosciences) for 15 min at room temperature. The cells were then stained with antibodies for CD80 (FITC), CD86 (AmCyan-A), and CD40 (PE). To quantify presentation of SIINFEKL (SEQ ID NO:15) via the MHC-I pathway, cells were stained with a PE-Cy7 labeled antibody (BioLegend) against anti-mouse H-2Kb bound to OVA257-264 (SIINFEKL (SEQ ID NO:15)). All antibodies were fluorescent conjugates and were used by staining for 20 min at a 1:300 dilution in PBS+1% BSA. Cells were then washed twice in PBS+1% BSA and resuspended in a DAPI solution for analysis by flow cytometry. The data analysis was performed with Flowjo (Treestar).

[2] = test system: DC/OT-I T cell co-cultures; assay: ELISA of cytokines in DC/T cell co-culture supernatants; assay type: cell-based, mouse; conditions: co-culture supernatant, SIIN-treated samples
Procedure: (§1) T cell co-culture, activation, and proliferation: […] Untreated cells were used as a negative control. After 48 h, T cells isolated from OT-I mice were stained with CellTrace™ CFSE cell proliferation reagent (5 μg/mL in cell culture medium) by incubation at room temperature for 5 min. T cells were then co-cultured with each DC sample by addition of 3.0×10^5 T cells per well. After an additional 48 h of incubation, cells were centrifuged (800 rcf for 5 min), the supernatants were collected for ELISA, and the cells were washed in PBS+1% FBS. Cells were then blocked as above and stained with anti-CD8a (APC) for 15 min at room temperature. Lastly, cells were washed twice and re-suspended in DAPI. T cell proliferation was determined by the mean fluorescence intensity (MFI) of CFSE signal among DAPI^−, CD8^+ cells compared with positive and negative controls. ELISA: Cytokine levels in the supernatants collected from DCs/T cell co-cultures were analyzed by ELISA using mouse TNF, IFN-γ, and IL-1β ELISA reagents (BD Bioscience) according to the manufacturer's instructions. 10 μL of each supernatant was used in each test, and cytokine concentrations were quantified by comparison to standard curves prepared from known standards.

OT-I CD8+ T cells = assay: DC / OT-I CD8+ T cell co-culture, CFSE proliferation; assay type: cell-based, mouse; conditions: T cells co-cultured with treated DCs
Procedure: as §1, with “controls.” for “controls. ELISA: Cytokine levels in the supernatants collected from DCs/T cell co-cultures were analyzed by ELISA using mouse TNF, IFN-γ, and IL-1β ELISA reagents (BD Bioscience) according to the manufacturer's instructions. 10 μL of each supernatant was used in each test, and cytokine concentrations were quantified by comparison to standard curves prepared from known standards.”

Row | Substance | TLR3 signaling (TLR3) | viability of DCs relative to cells treated with LPS (primary DCs) [%] | DCs presenting SIIN via MHC-I [1] | cytokine secretion [2] | OT-I T cell proliferation (CFSE dilution) (OT-I CD8+ T cells)
1 | Pam3CSK4 | lack of signal | – | – | – | –
2 | Polyinosinic-polycytidylic acid [polyIC] | – | 92.8 | baseline levels | – | –
3 | SIINFEKL (Ovalbumin peptide model antigen) [SIIN peptide] | – | – | – | lack of cytokine secretion | proliferation of OT-I T cells
4 | lipopolysaccharide [LPS] | lack of signal | – | baseline levels | – | –

— patent US10517946B2, “Polyelectrolyte multilayers assembled from immune signal compounds” (University of Maryland, College Park, priority 2015, dated 2019)
